Active and inactive are the calls of the source. No cut-off for these calls is given here.
Tests used:
BXPC-3 [1] = assay: Induction of apoptosis in human BXPC-3 cells assessed as late apoptotic cells at 4 uM measured after 48 hrs by AnnexinV/propidium iodide staining based flow cytometry (reference value: 5.15 %); format: functional
BXPC-3 [2] = assay: Induction of apoptosis in human BXPC-3 cells assessed as downregulation of Bcl-xl at 4 to 16 uM measured after 48 hrs by Western blot analysis; format: functional, cell-based; conditions: dose 4-16 µM
BXPC-3 [3] = assay: Induction of morphological changes in human BXPC-3 cells assessed as assessed as increase in apoptotic cells at 8 uM measured after 48 hrs by light microscopic analysis; format: functional, cell-based
Mus musculus [4] = assay: Downregulation of Ki67 expression in BALB/c mouse allografted with mouse Panc02 cells […] at 50 mg/kg, ip administered every day measured after 20 days by immunohistochemical analysis; format: functional, organism-based; conditions: time 20.0 day
PANC-1 = assay: Antiproliferative activity against human PANC-1 cells assessed as cell growth inhibition at 2 uM measured after 48 to 72 hrs by MTT assay relative to control; format: functional; conditions: time 48-72 hrs, read-out: GI
BXPC-3 [5] = assay: Cell cycle arrest in human BXPC-3 cells assessed as accumulation at G1/S phase by measuring upregulation of p57 measured after 48 hrs by Western blot analysis; format: functional, cell-based; conditions: dose 4-16 µM
BXPC-3 [6] = assay: Cell cycle arrest in human BXPC-3 cells assessed as acumulation at G0/G1 phase by measuring downregulation of CyclinD1 at 4 to 16 uM measured after 48 hrs by Western blot analysis; format: functional, cell-based; conditions: dose 4-16 µM
BXPC-3 [7] = assay: Induction of apoptosis in human BXPC-3 cells assessed as late apoptotic cells at 8 uM measured after 48 hrs by AnnexinV/propidium iodide staining based flow cytometry (reference value: 5.15 %); format: functional
BXPC-3 [8] = assay: Induction of apoptosis in human BXPC-3 cells assessed as early apoptotic cells at 16 uM measured after 48 hrs by AnnexinV/propidium iodide staining based flow cytometry (reference value: 1.02 %); format: functional
BXPC-3 [9] = assay: Induction of apoptosis in human BXPC-3 cells assessed as upregulation of caspase 3 at 4 to 16 uM measured after 48 hrs by Western blot analysis; format: functional, cell-based; conditions: dose 4-16 µM
BXPC-3 [10] = assay: Induction of apoptosis in human BXPC-3 cells assessed as activation of caspase 3 at 4 to 16 uM measured after 48 hrs by Western blot analysis; format: functional, cell-based; conditions: dose 4-16 µM
Panc02 [11] = assay: Induction of apoptosis in mouse Panc02 cells allografted in BALB/c mouse assessed as condensed chromatin at 50 mg/kg, ip administered every day in combination with gemcitabine at 100 mg/kg measured after 20 days by hematoxylin and eosin staining based assay; format: functional, organism-based; conditions: time 20.0 day
BXPC-3 [12] = assay: Induction of apoptosis in human BXPC-3 cells assessed as increase in cleaved PARP expression at 4 to 16 uM measured after 48 hrs by Western blot analysis; format: functional, cell-based; conditions: dose 4-16 µM
BXPC-3 [13] = assay: Inhibition of c-Myc protein expression in human BXPC-3 cells at 4 to 16 uM measured after 48 hrs by Western blot analysis; format: functional, cell-based; conditions: dose 4-16 µM
BXPC-3 [14] = assay: Cell cycle arrest in human BXPC-3 cells assessed as acumulation at G0/G1 phase by measuring downregulation of CyclinE1 at 4 to 16 uM measured after 48 hrs by Western blot analysis; format: functional, cell-based; conditions: dose 4-16 µM
BXPC-3 [15] = assay: Cell cycle arrest in human BXPC-3 cells assessed as decrease in cell population at G2/M phase at 4 to 16 uM measured after 48 hrs by AnnexinV-FITC/propidium iodide staining based flow cytometry; format: functional; conditions: dose 4-16 µM
[16] = target: T1, Bromodomain-containing protein 4 (Homo sapiens, UniProt O60885); assay: Inhibition of BRD4 (unknown origin) at 1 uM preincubated for 15 mins followed by substrate addition and measured after 1 hr by AlphaScreen assay relative to control; conditions: time 75.0 min
[17] = target: T1, Bromodomain-containing protein 4; assay: Inhibition of BRD4 in human BXPC-3 cells assessed as blocking of BRD4-pTEFB interaction; format: cell-based
Mus musculus [18] = assay: Downregulation of Ki67 expression in BALB/c mouse allografted with mouse Panc02 cells […] at 50 mg/kg, ip administered every day in combination with gemcitabine at 100 mg/kg measured after 20 days by immunohistochemical analysis; format: functional, organism-based; conditions: time 20.0 day
Mus musculus [19] = assay: Upregulation of caspase 3 in BALB/c mouse allografted with mouse Panc02 cells […] at 50 mg/kg, ip administered every day in combination with gemcitabine at 100 mg/kg measured after 20 days by immunohistochemical analysis; format: functional, organism-based; conditions: time 20.0 day
[20] = target: T1, Bromodomain-containing protein 4; assay: Inhibition of BRD4 (unknown origin) preincubated for 15 mins followed by substrate addition and measured after 1 hr by AlphaScreen assay relative to control
Mus musculus [21] = assay: Decrease in c-Myc expression in BALB/c mouse allografted with mouse Panc02 cells […] at 50 mg/kg, ip administered every day measured after 20 days by immunohistochemical analysis; format: functional, organism-based; conditions: time 20.0 day
Panc02 [22] = assay: Antitumor activity against mouse Panc02 allografted in BALB/c mouse assessed as reduction in tumor weight at 50 mg/kg, ip administered every day for 20 days relative to control; format: functional; conditions: 480 h, time 20 day, read-out: TGI
BXPC-3 [23] = assay: Antiproliferative activity against human BXPC-3 cells assessed as cell growth inhibition at 2 uM measured after 48 to 72 hrs by MTT assay relative to control; format: functional; conditions: time 48-72 hrs, read-out: GI
Mus musculus [24] = assay: Decrease in c-Myc expression in BALB/c mouse allografted with mouse Panc02 cells […] at 50 mg/kg, ip administered every day in combination with gemcitabine at 100 mg/kg measured after 20 days by immunohistochemical analysis; format: functional, organism-based; conditions: time 20.0 day
BXPC-3 [25] = assay: Induction of apoptosis in human BXPC-3 cells measured after 48 hrs by AnnexinV/propidium iodide staining based flow cytometry; format: functional, cell-based; conditions: dose 4-16 µM
BXPC-3 [26] = assay: Cell cycle arrest in human BXPC-3 cells assessed as accumulation at G1/S phase by measuring upregulation of Rb at 4 to 16 uM measured after 48 hrs by Western blot analysis; format: functional, cell-based; conditions: dose 4-16 µM
BXPC-3 [27] = assay: Induction of apoptosis in human BXPC-3 cells assessed as upregulation of Bax at 4 to 16 uM measured after 48 hrs by Western blot analysis; format: functional, cell-based; conditions: dose 4-16 µM
BXPC-3 [28] = assay: Cell cycle arrest in human BXPC-3 cells assessed as acumulation at G0/G1 phase by measuring downregulation of CDK4 at 4 to 16 uM measured after 48 hrs by Western blot analysis; format: functional, cell-based; conditions: dose 4-16 µM
BXPC-3 [29] = assay: Anticlonogenic activity against human BXPC-3 cells assessed as reduction in colony formation at 0.25 umol/L incubated for 10 days by crystal violet staining based assay; format: functional, cell-based; conditions: dose 0.25 µmol/L, time 10.0 day
BXPC-3 [30] = assay: Cell cycle arrest in human BXPC-3 cells assessed as accumulation at sub-G1 phase at 8 to 16 uM measured after 48 hrs by AnnexinV-FITC/propidium iodide staining based flow cytometry; format: functional; conditions: dose 8-16 µM
BXPC-3 [31] = assay: Antiproliferative activity against human BXPC-3 cells assessed as cell growth inhibition measured after 48 to 72 hrs by MTT assay; format: functional, cell-based; conditions: dose 2-32 µM, time 48-72 hrs
BXPC-3 [32] = assay: Induction of apoptosis in human BXPC-3 cells assessed as increase in cytochrome C expression at 4 to 16 uM measured after 48 hrs by Western blot analysis; format: functional, cell-based; conditions: dose 4-16 µM
BXPC-3 [33] = assay: Cell cycle arrest in human BXPC-3 cells assessed as acumulation at G0/G1 phase by measuring downregulation of CDK2 at 4 to 16 uM measured after 48 hrs by Western blot analysis; format: functional, cell-based; conditions: dose 4-16 µM

SMILES: CCS(=O)(=O)Nc1ccc(Oc2ccccc2F)c(-c2cn(C)c(=O)c3cncn23)c1
- Activity (BXPC-3 [1]): 8.59%
- Activity (BXPC-3 [2]): Active
- Activity (BXPC-3 [3]): Active
- Activity (Mus musculus [4]): Active
- inhibition of growth at 2 µM (PANC-1): 16.5%
- Activity (BXPC-3 [5]): Active
- Activity (BXPC-3 [6]): Active
- Activity (BXPC-3 [7]): 12.36%
- Activity (BXPC-3 [8]): 2.35%
- Activity (BXPC-3 [9]): Active
- Activity (BXPC-3 [10]): Active
- Activity (Panc02 [11]): Active
- Activity (BXPC-3 [12]): Active
- inhibition (BXPC-3 [13]): Active
- Activity (BXPC-3 [14]): Active
- Activity (BXPC-3 [15]): Active
- inhibition [16]: 100%
- inhibition [17]: Active
- Activity (Mus musculus [18]): Active
- Activity (Mus musculus [19]): Active
- IC50 [20]: 35 nM
- Activity (Mus musculus [21]): Active
- inhibition in vivo at 50 mg/kg (Panc02 [22]): 79%
- inhibition of growth at 2 µM (BXPC-3 [23]): 38.4%
- Activity (Mus musculus [24]): Active
- Activity (BXPC-3 [25]): Dose-dependent effect
- Activity (BXPC-3 [26]): Active
- Activity (BXPC-3 [27]): Active
- Activity (BXPC-3 [28]): Active
- Activity (BXPC-3 [29]): Active
- Activity (BXPC-3 [30]): Active
- growth inhibition (GI) (BXPC-3 [31]): Dose-dependent effect
- Activity (BXPC-3 [32]): Active
- Activity (BXPC-3 [33]): Active

From ChEMBL document CHEMBL4673289, “Design, synthesis and biological evaluation of imidazolopyridone derivatives as novel BRD4 inhibitors” (Bioorg Med Chem, 2021)
